Results: patent US12319703B2, “Macrocyclic fused pyrazoles as Mcl-1 inhibitors” (ASCENTAGE PHARMA (SUZHOU) CO., LTD., priority 2019, dated 2025)
Converted amounts (≈) assume the structure as drawn.

Experiments:
[1] = from CCOC(=O)c1c(CCCOc2cc(S)cc3ccccc23)c2ccc(Cl)c(-c3c(CSCc4cc(CBr)n(C)n4)nn4c3CCC4)c2n1C; thioether bond; K2CO3; acetonitrile; 3.14 mM; 25.0 °C; 3.0 h; 6 steps
[2] = target: T1, Mcl-1 protein (residues 171-323) (Homo sapiens, UniProt Q07820); assay: Inhibition of Mcl-1 by fluorescence polarization (FP) competitive binding assay; conditions: FAM-Bid tracer 2 nM, Mcl-1 20 nM, 30 min
T1 construct: Tag-free Mcl-1 protein (residues 171-323) was used in the FP assay
T1 sequence (Q07820 171-323): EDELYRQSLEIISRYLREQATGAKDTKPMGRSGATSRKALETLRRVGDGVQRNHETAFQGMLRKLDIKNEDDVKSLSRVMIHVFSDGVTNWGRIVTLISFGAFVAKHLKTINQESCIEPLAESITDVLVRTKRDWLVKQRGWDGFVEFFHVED
Summary of the method: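 FAM-Bid peptide (2 nM) was competed against Mcl-1 (20 nM) in PBS with 0.01% BGG and 0.01% Triton X-100 at 5% final DMSO. Anisotropy was read as mP over a 10-point dilution series. IC50 came from a sigmoidal dose-response nonlinear fit.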

OPM-2 cells = assay: Cell viability assay (OPM-2 cells), CCK-8; assay type: cell-based; conditions: Homo sapiens, OPM-2, 24 h, WST, 5% FBS, read-out: OPM2 (WST, 5% FBS)
Summary of the method: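 OPM-2 cells from DSMZ were tested for viability with a Cell Counting Kit-8 (CCK-8) assay. Serially diluted compound (100 μL) was added to 96-well plates, then 100 μL of cell suspension (20000 cells/well) was added, and plates were incubated at 37° C. under 5% CO2 for 24 hours. After 20 μL CCK-8 solution and 4 hours of incubation, absorbance was read at 450 nm. Readings were normalized to vehicle and IC50 was fitted by nonlinear regression in GraphPad Prism 6.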

NCI-H929 cells = assay: Cell viability assay (NCI-H929 cells), CCK-8; assay type: cell-based; conditions: Homo sapiens, NCI-H929, 24 h, WST, 5% FBS
Kinetic solubility assay = assay type: physicochemical; conditions: PBS buffer pH 6.5, aqueous buffer, thermodynamic from solid; pH 6.5 PBS buffer, HPLC; read-out: Solubility (pH 6.5, μg/mL)
Description: Representative Compounds of the Disclosure were tested in a solubility assay with pH 6.5 PBS buffer. PBS buffer was prepared by dissolving 4.86 g of potassium dihydrogen phosphate and 5.09 g of disodium hydrogen phosphate dodecahydrate in 1 L of ultrapure water to have final pH value of 6.5. In the solubility assay, 0.5 mg of test sample was dissolved in 1 mL of methanol and the stock solution was transferred into 2 mL EP tube, and evaporated at 50° C. for 3 h. To the tube was added 1 mL of PBS buffer and the mixture was stirred and shaken for 1-2 h. The solution was allowed to stand overnight and then filtered before HPLC analysis. Another 1.5 mg of the sample was dissolved in 3 mL of methanol to prepare a calibration curve with a series of concentration range of 5-500 μM. The solubility of each sample was determined by the measured peak area in HPLC.

Question: With `Cn1nc2cc1CSc1cc(c3ccccc3c1)OCCCc1c(C(=O)O)n(C)c3c(c(Cl)ccc13)-c1c(nn3c1CCC3)CSC2` as the compound, how does the ring closure, yield of all isomers [1] read?
Answer: Its ring closure, yield of all isomers is 3%.

Question: Which results are given for `Cn1nc2c(Cl)c1CSc1cc(c3ccccc3c1)OCCCc1c(C(=O)O)n(C)c3c(c(Cl)ccc13)-c1c(nn3c1CCCC3)CSC2` [compound 24, (E)-1^6,6^4-dichloro-1^1,6^1-dimethyl-2^4,2^5,2^6,2^7-tetrahydro-1^1H,6^1H-10-oxa-4,8-dithia-2(3,2)-pyrazolo[1,5-a]pyridina-1(7,3)-indola-6(3,5)-pyrazola-9(3,1)-naphthalenacyclotridecaphane-1^2-carboxylic acid]?
Answer: IC50 [2]: 14.3 nM; IC50 (OPM-2 cells): 4860 nM; IC50 (NCI-H929 cells): 1640 nM; solubility (Kinetic solubility assay): < 1 µg/mL

Question: With `Cn1nc2cc1CSc1cc(c3ccc(F)cc3c1)OCCCc1c(C(=O)O)n(C)c3c(c(Cl)ccc13)-c1c(nn3c1CCCC3)CSC2` [compound 26, (Z)-1^6-chloro-96-fluoro-1^1,6^1-dimethyl-2^4,2^5,2^6,2^7-tetrahydro-1^1H,6^1H-10-oxa-4,8-dithia-2(3,2)-pyrazolo[1,5-a]pyridina-1(7,3)-indola-6(3,5)-pyrazola-9(3,1)-naphthalenacyclotridecaphane-1^2-carboxylic acid] as the compound, how does the IC50 [2] read?
Answer: Its IC50 is 30.9 nM.

Question: And the IC50 (OPM-2 cells)?
Answer: The IC50 was 133 nM.

Question: And the IC50 (NCI-H929 cells)?
Answer: The IC50 was 44 nM.

Question: And the solubility (Kinetic solubility assay)?
Answer: Its solubility is 1 µg/mL (≈ 1.4 µM).

Question: Which IC50 [2] does the source give for `Cn1nc2cc1CSc1cc(c3ccc(F)cc3c1)OCCCc1c(C(=O)O)n(C)c3c(c(Cl)ccc13)-c1c(nn3c1CCC3)CSC2` [compound 27, (Z)-1^6-chloro-9^6-fluoro-1^1,6^1-dimethyl-2^5,2^6-dihydro-1^1H,2^4H,6^1H-10-oxa-4,8-dithia-1(7,3)-indola-2(3,2)-pyrrolo[1,2-b]pyrazola-6(3,5)-pyrazola-9(3,1)-naphthalenacyclotridecaphane-1^2-carboxylic acid] here?
Answer: The IC50 was 24.9 nM.

Question: What about the IC50 (OPM-2 cells) of the same compound?
Answer: The IC50 was 153 nM.

Question: And the IC50 (NCI-H929 cells)?
Answer: Its IC50 is 51 nM.

Question: What about the solubility (Kinetic solubility assay) of the same compound?
Answer: The solubility was 52 µg/mL (≈ 74 µM).

Question: For `Cc1cc2ccc1CSc1cc(c3ccc(F)cc3c1)OCCCc1c(C(=O)O)n(C)c3c(c(Cl)ccc13)-c1c(nn3c1CCC3)CSC2` [compound 30, 1^6-chloro-9^6-fluoro-1^1,6^3-dimethyl-2^5,2^6-dihydro-1^1H,2^4H-10-oxa-4,8-dithia-1(7,3)-indola-2(3,2)-pyrrolo[1,2-b]pyrazola-9(3,1)-naphthalena-6(1,4)-benzenacyclotridecaphane-1^2-carboxylic acid], which IC50 [2] is on record?
Answer: The IC50 was 14.2 nM.

Question: And the IC50 (OPM-2 cells)?
Answer: The IC50 was 255 nM.

Question: And the IC50 (NCI-H929 cells)?
Answer: Its IC50 is 196 nM.

Question: What about the solubility (Kinetic solubility assay) of the same compound?
Answer: Its solubility is less than 1 µg/mL.

Question: Which results are given for `Cc1c2c(nn1C)CN(S(C)(=O)=O)Cc1cc(n(C)n1)CSc1cc(c3ccccc3c1)OCCCc1c(C(=O)O)n(C)c3c-2c(Cl)ccc13` [compound 36, (Z)-1^6-chloro-1^1,2^1,2^5,6^1-tetramethyl-4-(methylsulfonyl)-1^1H,2^1H,6^1H-10-oxa-8-thia-4-aza-1(7,3)-indola-2(4,3),6(3,5)-dipyrazola-9(3,1)-naphthalenacyclotridecaphane-1^2-carboxylic acid]?
Answer: IC50 [2]: 19 nM; IC50 (OPM-2 cells): 317 nM; IC50 (NCI-H929 cells): 71 nM; solubility (Kinetic solubility assay): 16 µg/mL (≈ 21.8 µM)

Question: For `Cc1oc2nc1CSc1cc(c3ccccc3c1)OCCCc1c(C(=O)O)n(C)c3c(c(Cl)ccc13)-c1c(nn3c1OCC3)CSC2` [compound 38, (Z)-1^6-chloro-1^1,6^5-dimethyl-2^2,2^3-dihydro-1^1H-10-oxa-4,8-dithia-2(7,6)-pyrazolo[5,1-b]oxazola-6(2,4)-oxazola-1(7,3)-indola-9(3,1)-naphthalenacyclotridecaphane-1^2-carboxylic acid], which IC50 [2] is on record?
Answer: The IC50 was 85 nM.

Question: What about the IC50 (OPM-2 cells) of the same compound?
Answer: Its IC50 is 5880 nM.

Question: What about the IC50 (NCI-H929 cells) of the same compound?
Answer: Its IC50 is 5990 nM.

Question: What about the solubility (Kinetic solubility assay) of the same compound?
Answer: The solubility was 127 µg/mL (≈ 185 µM).

Question: What does the source list for `Cn1nc2cc1CSc1cc(c3ccc(F)cc3c1)OCCCc1c(C(=O)O)n(C)c3c(c(Cl)ccc13)-c1c(nn3c1CCC3)CN(S(C)(=O)=O)C2` [compound 44, (Z)-1^6-chloro-9^6-fluoro-1^1,6^1-dimethyl-4-(methylsulfonyl)-2^5,2^6-dihydro-1^1H,2^4H,6^1H-10-oxa-8-thia-4-aza-1(7,3)-indola-2(3,2)-pyrrolo[1,2-b]pyrazola-6(3,5)-pyrazola-9(3,1)-naphthalenacyclotridecaphane-1^2-carboxylic acid]?
Answer: IC50 [2]: 15 nM; IC50 (OPM-2 cells): 506 nM; IC50 (NCI-H929 cells): 156 nM; solubility (Kinetic solubility assay): > 400 µg/mL

Question: With `Cc1c2c(nn1C)CN(C1CC1)Cc1cc(n(C)n1)CSc1cc(c3ccccc3c1)OCCCc1c(C(=O)O)n(C)c3c-2c(Cl)ccc13` [compound 49, (Z)-1^6-chloro-4-cyclopropyl-1^1,2^1,2^5,6^1-tetramethyl-1^1H,2^1H,6^1H-10-oxa-8-thia-4-aza-1(7,3)-indola-2(4,3),6(3,5)-dipyrazola-9(3,1)-naphthalenacyclotridecaphane-1^2-carboxylic acid] as the compound, how does the IC50 [2] read?
Answer: Its IC50 is 21 nM.

Question: And the IC50 (OPM-2 cells)?
Answer: The IC50 was 167 nM.

Question: And the IC50 (NCI-H929 cells)?
Answer: Its IC50 is 55 nM.

Question: And the solubility (Kinetic solubility assay)?
Answer: The solubility was 28 µg/mL (≈ 40.3 µM).
